Measurements reported in PubChem BioAssay (NCI).
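Where inhibition never reached the appropriate level, the endpoint shown equals the highest concentration tested. Otherwise, values were interpolated linearly from a five-concentration, 48-hour dose response in 96-well plates. Definition used: TGI = concentration required for complete inhibition of growth.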

Tests used:
Test in all cases: DTP human tumour cell line panel, 48 h
DU-145 prostate = tested on: DU-145 prostate
A498 renal = tested on: A498 renal
HOP-92 NSCLC = tested on: HOP-92 NSCLC
LOX IMVI melanoma = tested on: LOX IMVI melanoma
SW-620 colon = tested on: SW-620 colon
SF-268 CNS = tested on: SF-268 CNS
SK-MEL-2 melanoma = tested on: SK-MEL-2 melanoma
MALME-3M melanoma = tested on: MALME-3M melanoma
NCI-H226 lung = tested on: NCI-H226 lung
NCI-H522 lung = tested on: NCI-H522 lung

Compound	TGI (DU-145 prostate)	TGI (A498 renal)	TGI (HOP-92 NSCLC)	TGI (LOX IMVI melanoma)	TGI (SW-620 colon)	TGI (SF-268 CNS)	TGI (SK-MEL-2 melanoma)	TGI (MALME-3M melanoma)	TGI (NCI-H226 lung)	TGI (NCI-H522 lung)
COc1cc(S(=O)(=O)Nc2nc(-c3ccc(N=Cc4ccccc4O)cc3)cs2)ccc1Cl	> 100 µM	> 100 µM	> 100 µM	> 100 µM	> 100 µM	> 100 µM	> 100 µM	> 100 µM	> 100 µM	> 100 µM
Fc1ccc2c(c1)SC1=Nc3sc4cc(F)ccc4[n+]3CN12	> 100 µM	33.5 µM	51.6 µM	52.5 µM	> 100 µM	> 100 µM	55 µM	47.1 µM	56.8 µM	35.2 µM
C[C@H]1CCC/C=C/[C@@H]2C[C@H](OC(=O)CN(C)C)C[C@H]2[C@H](O)/C=C/C(=O)O1	> 33.8 µM	> 32.3 µM	> 56.1 µM	0.219 µM	4.53 µM	> 100 µM	1.36 µM	0.15 µM	0.133 µM	1.39 µM
CCCCCC(=O)OC[n+]1cccc(-c2c(COC(=O)NC(C)C)c(COC(=O)NC(C)C)c3n2CCC3)c1	> 100 µM	37.7 µM	77.2 µM	> 100 µM	> 100 µM	> 100 µM	94.7 µM	> 100 µM	> 100 µM	25.2 µM
O=C1C(Cl)=CC2(C=C1Cl)CCN=c1c(O)c3c(c(O)c12)=NC=N3	> 100 µM	> 100 µM	> 100 µM	50.4 µM	> 100 µM	> 100 µM	63.1 µM	43.4 µM	> 100 µM	51.8 µM
Cc1ccc2c(=O)cc(-c3cc(C)sc3C)[nH]c2n1	> 94.5 µM	> 100 µM	> 100 µM	> 58.8 µM	19.4 µM	> 73.4 µM	> 29.6 µM	> 100 µM	7.62 µM	> 22.2 µM
c1ccc(C(NC2=NCCO2)C2CC2)cc1 (stereo not given)	> 100 µM	> 100 µM	> 100 µM	> 100 µM	> 100 µM	> 100 µM	> 100 µM	> 100 µM	> 100 µM	> 100 µM
O=C(/C=C/c1ccccc1)CCN1CCCCC1	> 100 µM	> 100 µM	> 100 µM	37.6 µM	41.6 µM	> 100 µM	> 100 µM	> 100 µM	> 100 µM	47.4 µM
NC(CCC(=O)O)C(=O)NC(Cc1ccc(N(CCCl)CCCl)cc1)C(=O)O (stereo not given)	> 100 µM	> 100 µM	> 100 µM	> 100 µM	> 100 µM	> 100 µM	> 100 µM	> 100 µM	> 100 µM	> 100 µM
S=c1[nH]nc(Cn2c3ccc(Br)cc3c3nc4ccccc4nc32)o1	> 100 µM	> 100 µM	47 µM	> 65.4 µM	> 31.6 µM	> 100 µM	> 88.6 µM	> 100 µM	> 100 µM	69.6 µM
NC(Cc1cc(I)c(Oc2ccc(O)c(I)c2)c(I)c1)C(=O)O (stereo not given)	> 100 µM	92.6 µM	> 100 µM	> 100 µM	> 100 µM	> 100 µM	41 µM	> 100 µM	> 100 µM	> 100 µM
O=[N+]([O-])c1ccc2c3c1[C@@H]1O[C@@H]1c1cccc(c1-3)[C@@H]1O[C@H]21	8.72 µM	8.87 µM	28.6 µM	3.44 µM	6.7 µM	10.6 µM	> 23.7 µM	12.7 µM	> 80.9 µM	3.33 µM
COc1cc(Nc2cc(Cl)cc(Cl)c2)nc(N)n1	48.6 µM	39.9 µM	32.1 µM	32.2 µM	59.8 µM	41.3 µM	32.1 µM	40.4 µM	42.5 µM	35.9 µM
O=C1CSC(c2cc3cc(Br)ccc3nc2Cl)N1c1ccc(Cl)cc1 (stereo not given)	> 100 µM	> 100 µM	> 100 µM	33.7 µM	> 100 µM	> 100 µM	32.2 µM	75.8 µM	> 100 µM	57.3 µM
